Laboratory results: PMC11375437, “Selective labelling of GBA2 in cells with fluorescent β-D-arabinofuranosyl cyclitol aziridines” (Chemical Science, 2024)

Biological target: T1, GBA2 (Homo sapiens, UniProt Q9HCG7)
T1 sequence (Q9HCG7 1-927): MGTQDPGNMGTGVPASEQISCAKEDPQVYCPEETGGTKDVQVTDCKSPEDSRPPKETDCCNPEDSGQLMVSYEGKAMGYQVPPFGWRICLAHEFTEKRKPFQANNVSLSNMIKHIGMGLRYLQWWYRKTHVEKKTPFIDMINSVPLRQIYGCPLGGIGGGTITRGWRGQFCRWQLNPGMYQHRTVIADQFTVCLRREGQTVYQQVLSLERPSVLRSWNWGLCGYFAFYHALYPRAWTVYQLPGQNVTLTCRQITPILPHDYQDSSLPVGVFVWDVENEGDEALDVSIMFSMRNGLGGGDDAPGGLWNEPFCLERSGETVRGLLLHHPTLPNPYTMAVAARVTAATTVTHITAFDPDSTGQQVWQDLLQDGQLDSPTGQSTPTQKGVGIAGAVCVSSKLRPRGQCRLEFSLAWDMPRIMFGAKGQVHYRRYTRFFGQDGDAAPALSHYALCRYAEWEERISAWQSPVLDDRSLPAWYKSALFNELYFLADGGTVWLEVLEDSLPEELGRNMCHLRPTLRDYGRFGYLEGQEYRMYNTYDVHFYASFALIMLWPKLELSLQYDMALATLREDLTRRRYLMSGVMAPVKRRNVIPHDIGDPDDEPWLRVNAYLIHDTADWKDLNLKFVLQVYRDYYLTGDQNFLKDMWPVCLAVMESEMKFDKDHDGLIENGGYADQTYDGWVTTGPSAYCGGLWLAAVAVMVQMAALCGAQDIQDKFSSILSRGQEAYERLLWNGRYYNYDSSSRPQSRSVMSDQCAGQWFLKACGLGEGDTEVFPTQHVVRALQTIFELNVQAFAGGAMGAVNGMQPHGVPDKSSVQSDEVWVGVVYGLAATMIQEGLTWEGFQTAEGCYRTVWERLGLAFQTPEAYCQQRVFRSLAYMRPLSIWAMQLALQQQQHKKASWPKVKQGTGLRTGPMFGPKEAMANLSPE
Experiment: Labelling kinetics of ABP 4 on GBA2 by SDS-PAGE
Type: biochemical
Parameters: expressed in transfected cells; host or cells: HEK293T GBA1/GBA2 KO (CRISPR/Cas9), GBA2 overexpressed
Conditions: HEK293T GBA1/2 KO, GBA2 OE lysate; pH 5.8; 37 °C
Description: To this end, lysates of HEK293T cells containing all β-glucosidases (endogenous GBA1 with overexpressed GBA2 and GBA3) were treated with ABPs 3, 4, 5 or 7, followed by protein separation by SDS-PAGE and fluorescence scanning of the wet gel slabs. […] In contrast, the β-D-Araf aziridine ABPs 3 and 4 selectively labelled GBA2 at a concentration of 100 nM, while Cy5 tagged ABP 5 did so at 500 nM. The GBA2 selectivity of β-D-Araf cyclitol aziridines 3, 4 and 5 was confirmed in a mixture of a lysate of overexpressed GBA2 cells spiked with 3 ng rhGBA1 (Fig. 2C and ESI Fig. S3 ^†). […] Therefore, only a combined inactivation rate constant (kinact) and binding constant (KI) ratio (kinact/KI) could be measured. […] Importantly, no labelling of GBA1 or GBA3 was detected under varying pH and time conditions (ESI Fig. S4-2 ^†).
Figure S4-1. […] A) Percentage of GBA2 labelling by ABP 4 (left graphs), data was quantified from three independent sets of fluorescent gels under the depicted conditions. […]
of inhibitors diluted in McIlvaine buffer (150 mM, pH 5.2) at 37 °C for 30 min or 3 h. […] After stopping the enzyme reaction with 200 μL 1 M NaOH-glycine (pH 10.3), 4-methylumbelliferone fluorescence was measured with a fluorimeter LS55 (Perkin Elmer, Waltham, MA, USA) with λEX 366 nm and λEM 445 nm. […]

COc1ccc(C2=[N+]3C(=C(CCCCc4cn(CCCCCCCCN5[C@@H]6[C@H](CO)[C@@H](O)[C@H](O)[C@@H]65)nn4)c4ccc(-c5ccc(OC)cc5)n4[B-]3(F)F)C=C2)cc1 (stereo partly shown) [ABP 4]
kinact/KI: 19200 M⁻¹ s⁻¹
